Reference: the supplement of paper PMC8633005

Experiments:
Experiment in all cases: drug sensitivity score (DSS) (DSS (unitless, 0-50 scale)); higher = more sensitive (stronger viability inhibition); extreme values may be limits of the assay
Settings in all cases: 72 h; culture: 2D
Bowes = tested on: Bowes
Summary of the method: (§1)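 A 527-compound oncology library was screened in 384-well plates against melanoma cell lines and patient-derived melanoma cultures grown in 2D, the cultures at 1000–1500 cells per well. Each compound, in DMSO or water, was applied at five concentrations over a 10,000-fold range and incubated for 72 h at 37 °C before CellTiter-Glo luminescence readout of viability. A drug sensitivity score, a modified area-under-curve measure, was calculated from curves fitted in the in-house Breeze software.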

FM-MEL-2 = tested on: FM-MEL-2
Summary of the method: as §1

FM-MEL-3 = tested on: FM-MEL-3
Summary of the method: as §1

FM-MEL-6 = tested on: FM-MEL-6
Summary of the method: as §1

SK-MEL-28 = tested on: SK-MEL-28
Summary of the method: as §1

SK-MEL-2 = tested on: SK-MEL-2
Summary of the method: as §1

WM165 = tested on: WM165
Summary of the method: as §1

WM852 = tested on: WM852
Summary of the method: as §1

SMILES | drug sensitivity score (Bowes) | drug sensitivity score (FM-MEL-2) | drug sensitivity score (FM-MEL-3) | drug sensitivity score (FM-MEL-6) | drug sensitivity score (SK-MEL-28) | drug sensitivity score (SK-MEL-2) | drug sensitivity score (WM165) | drug sensitivity score (WM852)
CNC(=O)c1ccccc1Sc1ccc2c(/C=C/c3ccccn3)n[nH]c2c1 [Axitinib] | 0.1 | 2.1 | 2.6 | 0 | 0.1 | 0 | 4.6 | 0.1
CC(C)n1cnc2c(NCCc3ccc(O)cc3)nc(-c3csc4ccccc34)nc21 [StemRegenin 1] | 1.1 | 1.5 | 3.4 | 3.6 | 0 | 0 | 2.5 | 1.3
Oc1ccc2c(c1)CC[C@H](c1ccccc1)[C@@H]2c1ccc(OCCN2CCCC2)cc1 [Lasofoxifene] | 0 | 0 | 0 | 0 | 0 | 0 | 0 | 0
COc1cc2c(cc1OC(C)C)[C@H](c1ccc(Cl)cc1)N(c1ccc(N(C)C[C@H]3CC[C@H](N4CCN(C)C(=O)C4)CC3)cc1)C(=O)C2 [NVP-CGM097] | 5.1 | 7.6 | 13.1 | 5 | 6.2 | 3.7 | 18 | 6.8
CC(C)c1c(C(=O)Nc2ccccc2)c(-c2ccccc2)c(-c2ccc(F)cc2)n1CC[C@@H](O)C[C@@H](O)CC(=O)O [Atorvastatin] | 5.8 | 0 | 1.5 | 0 | 1 | 1.1 | 7.6 | 4.4
C=CC(=O)Nc1cccc(Oc2nc(Nc3ccc(N4CCN(C)CC4)cc3)nc3ccsc23)c1 [Olmutinib] | 0.8 | 0 | 0 | 0 | 0 | 0 | 0 | 0
CC(O)(CS(=O)(=O)c1ccc(F)cc1)C(=O)Nc1ccc(C#N)c(C(F)(F)F)c1 (stereo unspecified) [Bicalutamide] | 0 | 0 | 1.7 | 0 | 0.1 | 0 | 0 | 0.8
Cc1cccc(-c2[nH]c(CNc3ccccc3F)nc2-c2ccc3ncnn3c2)n1 [TEW-7197] | 0 | 0.7 | 0 | 0 | 0 | 0 | 0 | 0
CN(C)Cc1ccc(S(=O)(=O)n2ccc(/C=C/C(=O)NO)c2)cc1 [Resminostat] | 2.7 | 6.9 | 6.5 | 7.3 | 4.8 | 7.9 | 9.7 | 2.7
Cc1ncc(-c2ccnc(Nc3ccc(S(C)(=O)=O)cc3)n2)n1C(C)C [AZD-5438] | 10.7 | 2.2 | 4.7 | 7 | 9.9 | 4.2 | 10.6 | 6.2
COc1cc2c(Oc3ccc4[nH]c(C)cc4c3F)ncnc2cc1OCCCN1CCCC1 [Cediranib] | 1.7 | 0 | 0 | 1.3 | 0 | 0 | 0 | 0
CC(C)(O)CC(=O)NCCn1ccc2ncnc(Nc3ccc(Oc4cccc(C(F)(F)F)c4)c(Cl)c3)c21 [TAK-285] | 1.4 | 0 | 0 | 0 | 0 | 0 | 0 | 0
C=CC(=O)Nc1cc(Nc2nccc(-c3cn(C)c4ccccc34)n2)c(OC)cc1N(C)CCN(C)C [Osimertinib] | 2.7 | 3.2 | 2.7 | 4.6 | 4 | 3.4 | 4.3 | 3.5
CC#CC(=O)N1CCC[C@H]1c1nc(-c2ccc(C(=O)Nc3ccccn3)cc2)c2c(N)nccn12 [Acalabrutinib] | 0 | 1 | 2.2 | 3.4 | 0 | 0 | 0 | 0
Nc1nc(N)c2nc(-c3cccc(O)c3)c(-c3cccc(O)c3)nc2n1 [TG100-115] | 2.9 | 1.8 | 0 | 1 | 0 | 0 | 0 | 0
Cc1ccc(C(=O)Nc2ccc(Oc3cc4cnn(C)c4cc3-c3cn[nH]c3)c(F)c2)c(=O)n1-c1ccc(F)cc1 [Merestinib] | 0 | 0 | 0 | 0 | 0.4 | 0 | 0 | 2.2
S=c1[nH]cnc2nc[nH]c12 [Mercaptopurine] | 1.9 | 0.1 | 0 | 0.5 | 3.8 | 0 | 7.3 | 5.5
CC#CC(=O)N1CC[C@@H](n2c(=O)n(-c3ccc(Oc4ccccc4)cc3)c3c(N)ncnc32)C1 [Tirabrutinib] | 2 | 0 | 0 | 0 | 0 | 0 | 0 | 0
c1cn2cc(-c3ccc4cn[nH]c4c3)nc(Nc3ccc(N4CCOCC4)cc3)c2n1 [Entospletinib] | 0 | 6.7 | 0 | 0 | 0 | 0 | 0 | 0
N#Cc1ccc(COC[C@H]2O[C@@H](n3c(NCc4ccc(Cl)c(Cl)c4)nc4c(N)ncnc43)[C@H](O)[C@@H]2O)cc1 | 2.7 | 4.2 | 6.8 | 1 | 5.5 | 0 | 5.1 | 0
Nc1cc(C(F)(F)F)c(-c2cc(N3CCOCC3)nc(N3CCOCC3)n2)cn1 [Buparlisib] | 5.1 | 6.5 | 6.7 | 6 | 6.5 | 3.3 | 6.6 | 6

SMILES | drug sensitivity score (Bowes) | drug sensitivity score (FM-MEL-2) | drug sensitivity score (FM-MEL-3) | drug sensitivity score (FM-MEL-6) | drug sensitivity score (SK-MEL-28) | drug sensitivity score (SK-MEL-2) | drug sensitivity score (WM165) | drug sensitivity score (WM852)
Cc1cnc(-c2ccccc2C(C)C)nc1NCc1ccc(-n2ccnn2)cc1 [ML323] | 0.6 | 0 | 1.2 | 0 | 0 | 0 | 1.1 | 0.9
COc1cccc2c1C(=O)c1c(O)c3c(c(O)c1C2=O)C[C@@](O)(C(C)=O)C[C@@H]3O[C@H]1C[C@H](N)[C@H](O)[C@H](C)O1 [Daunorubicin] | 4.5 | 6.8 | 8.3 | 7.4 | 7.2 | 4.7 | 13.4 | 4.6
CON(C)C(=O)N1N=C(c2cc(F)ccc2F)S[C@@]1(CCCN)c1ccccc1 [Filanesib] | 12.5 | 4.7 | 10 | 11.3 | 4.5 | 16.5 | 17.4 | 23.3
CN(C)CC#Cc1ccc(OCCCc2sc(N3CCc4cccc(C(=O)Nc5nc6ccccc6s5)c4C3)nc2C(=O)O)c(F)c1 | 0.5 | 4.6 | 16.7 | 0.7 | 0 | 0 | 0.2 | 0
C[C@H](Nc1ncnc2[nH]cnc12)c1cc2ccc(F)cc2nc1-c1ccccn1 [AMG319] | 0 | 1.7 | 0 | 0.6 | 0 | 0 | 0 | 0
CNC(=O)c1ccc(C)c(-n2c(C)cc(OCc3ccc(F)cc3F)c(Br)c2=O)c1 | 0 | 0 | 0 | 0 | 0 | 0 | 0 | 0
CN1CCC(COc2cnc(-c3cccc(Cn4nc(-c5cccc(C#N)c5)ccc4=O)c3)nc2)CC1 [Tepotinib] | 0 | 0 | 0 | 0 | 0 | 0 | 0 | 0
CCCCCOC(=O)Nc1nc(=O)n([C@@H]2O[C@H](C)[C@@H](O)[C@H]2O)cc1F [Capecitabine] | 0 | 0 | 0 | 0 | 0 | 0 | 0 | 0
O=C(O)c1ccc2c(c1)nc(Nc1cccc(Cl)c1)c1ccncc12 [Silmitasertib] | 3.3 | 3.2 | 9.2 | 3.4 | 2.3 | 2.7 | 7.3 | 2.4
COc1cc2/c(=N/c3ccc(Br)cc3F)nc[nH]c2cc1OCC1CCN(C)CC1 [Vandetanib] | 1.3 | 0 | 0 | 0.2 | 0.4 | 0 | 0 | 0
COc1c(OCCCN2CCOCC2)ccc2c1N=C(NC(=O)c1cnc(N)nc1)N1CCN=C21 [Copanlisib] | 8.3 | 10.2 | 7.1 | 4.3 | 8.3 | 3.5 | 6.5 | 6.5
CC[C@H](Nc1ncnc2[nH]cnc12)c1nc2cccc(F)c2c(=O)n1-c1ccccc1 [Idelalisib] | 0.2 | 3.1 | 1 | 1.8 | 4.1 | 0 | 0.7 | 0.4
O=C(c1ccc(OCCN2CCCCC2)cc1)c1c(-c2ccc(O)cc2)sc2cc(O)ccc12 [Raloxifene] | 0 | 2.1 | 4.7 | 1.8 | 1.3 | 0 | 2 | 1.9
C=CC(=O)N1CCC(Oc2cc3c(Nc4ccc(Cl)c(Cl)c4F)ncnc3cc2OC)CC1 [Poziotinib] | 2.2 | 0 | 0 | 0 | 0 | 0 | 0 | 0
Cn1cc(C2=Nc3cc(NC(=O)C(N)C4CCCCC4)cc4c3C2=CNNC4=O)cn1 (stereo unspecified) | 15.5 | 3.1 | 9.7 | 11.1 | 2.3 | 11 | 13.5 | 12.5
Cc1c(-c2c(-c3ccc(F)o3)sc3ncnc(O[C@H](Cc4ccccc4OCc4ccnn4CC(F)(F)F)C(=O)O)c23)ccc(OCCN2CCN(C)CC2)c1Cl | 16.9 | 3.2 | 8.7 | 1.9 | 0 | 5.3 | 0 | 0
CC[C@]1(O)C[C@@H]2CN(CCc3c([nH]c4ccccc34)[C@@](C(=O)OC)(c3cc4c(cc3OC)N(C)[C@H]3[C@@](O)(C(=O)OC)[C@H](OC(C)=O)[C@]5(CC)C=CCN6CC[C@]43[C@@H]65)C2)C1 [Vinblastine] | 21.8 | 4.5 | 11.9 | 3.9 | 8.9 | 19.3 | 19.9 | 13.8
CCS(=O)(=O)Nc1ccc(Oc2ccc(F)cc2F)c(-c2cn(C)c(=O)c3[nH]ccc23)c1 [Mivebresib] | 17 | 16.3 | 16.2 | 15.8 | 12.2 | 9 | 24.2 | 0.4
CCCCOc1nc(N)c2c(n1)N(Cc1cccc(CN3CCCC3)c1)CC(=O)N2 [Vesatolimod] | 0 | 0 | 0 | 0.8 | 0 | 0 | 0 | 0
CC(C)(C)c1cnc(CSc2cnc(NC(=O)C3CCNCC3)s2)o1 [SNS-032] | 31.8 | 12.7 | 19.2 | 26.1 | 18.9 | 19.2 | 25 | 18.2
O=C(O)CNC(=O)c1c(O)c2ccccc2n(Cc2ccccc2)c1=O [IOX-2] | 0 | 0 | 0 | 0 | 0 | 0 | 0 | 0.2
